# From US20110009376A1, “PROPHYLACTIC OR THERAPEUTIC AGENT FOR EYE DISEASE ACCOMPANIED BY OPTIC NERVE DISORDER” (priority 2008, published 2011)
# Legend:
# [1] = system: cells in the retinal ganglion cell layer; test: Rat model of ischemia/reperfusion-induced retinal damage; type: in vivo; details: oral, twice daily for 12 days, eyes taken 7 days after ischemia/reperfusion
# Protocol: The usefulness of Ebselen against retinal ischemia/reperfusion damage was evaluated using a rat model of ischemia/reperfusion-induced retinal damage (Ophthalmologica. 1991; 203: 138-147) as a model for studying an effect on retinal damage induced by ischemia/reperfusion.
# A 1% (w/v) atropine sulfate hydrate ophthalmic solution (manufactured by Nihon Tenganyaku, Co. Ltd., product name: Nitten ATROPINE Ophthalmic Solution 1%) was instilled into the eye of a rat (Slc:SD, male, about 7 weeks old) to cause mydriasis, and general anesthesia was induced by allowing the rat to inhale a gas obtained by vaporizing 3% (v/v) halothane (manufactured by Takeda Pharmaceutical Company Limited., product name: Fluothane) by a mixed gas (2 L/min) of 100% (v/v) oxygen (0.5 L/min) and 100% (v/v) nitrous oxide (1.5 L/min), and the anesthesia was maintained under conditions of 1% (v/v) halothane. […] From the 8 sections, 3 sections were arbitrarily selected, and with respect to the selected sections, a photograph of the retina in the range of from 1 to 1.5 mm on the left or right side from the optic nerve head was taken, and the number of cells in the retinal ganglion cell layer was measured. […]
# NQO-1 = test: Induction of gene expression in rat fetus-derived retinal neuron culture system (quantitative PCR); type: cell-based; details: mean ± standard deviation, normalized to GAPDH
# Protocol: (§1) Test 1: Study of Ability to Induce Expression of Genes of Phase II Xenobiotic Metabolizing Enzyme and Antioxidant Enzyme using Rat Fetus-Derived Retinal Neuron Culture System
# (§2) The ability of Ebselen to induce the expression of genes of a phase II xenobiotic metabolizing enzyme and an antioxidant enzyme was evaluated using a rat fetus-derived retinal neuron culture system (Brain Res. 2003; 967: 257-66) Incidentally, the rat fetus-derived retinal neuron culture system has been extensively used as a technique for culturing retinal neurons and has been widely used as one of the tools for studying optic nerve diseases such as glaucoma.
# (§3) Retinal neurons of a rat fetus (Slc:Wistar/ST, 18 days old) were isolated and seeded onto a polyethyleneimine-coated plastic coverslip. Then, the cells were cultured for 3 days in an Eagle's minimum essential medium supplemented with 10% fetal bovine serum. Thereafter, a solvent (0.1% ethanol) or Ebselen was added thereto to give a final concentration of 25 μM, and the cells were incubated in the culture medium. Incidentally, the culture was performed under the conditions of 37° C. and 5% CO2. The culture medium was removed at each time point of 4, 8, or 12 hours after initiation of incubation. A mixed solution was prepared by adding 1% (v/v) β-mercaptoethanol (manufactured by BioRad, Cat No. 161-0710) to Buffer RLT attached to RNeasy Mini Kit (250) (manufactured by QIAGEN, Cat No. 74106), and the retinal neurons on the plastic coverslip were lysed with the thus prepared mixed solution. The total RNA was extracted from the resulting cell lysate according to the protocol attached to the RNeasy Mini Kit (250), and cDNA was synthesized using ExScript™ RT reagent Kit (manufactured by TAKARA, Cat No. RR035B). According to the protocol attached to SYBR Premix Ex Taq (Perfect Real Time) (manufactured by TAKARA, Cat No. RR041B), SYBR Premix Ex Taq (Perfect Real Time), ROX Reference Dye, the synthesized cDNA, and each primer pair of glyceraldehyde-3-phosphate dehydrogenase (hereinafter also referred to as “GAPDH”), GCLM, TRxR, HO-1, or NQO-1 (manufactured by Nihon Gene Research Laboratories Inc.) were mixed, and PCR reaction was performed using a quantitative PCR system (manufactured by Applied Biosystems, system name: ABI PRISM 7000), and the expression level of each of the genes of GAPDH, GCLM, TRxR, HO-1, and NQO-1 was measured. From the obtained results, a relative expression level of each target gene was calculated by normalizing the expression level of each target gene with the expression level of GAPDH which is a housekeeping gene according to the equation 1. Further, an induction ratio (%) of each target gene to the vehicle group was obtained by dividing the value of the expression level of each gene in the 25 μM Ebselen group by a mean value of the expression level of the same gene in the vehicle group according to the equation 2. Each data was shown as the mean±standard deviation of three independent experiments.
# (§4) Relative expression level of each target gene=(Expression level of each gene/Expression level of GAPDH) [Equation 1]
# (§5) Induction ratio of each target gene to vehicle group (%)=(Expression level of each gene in 25 μM Ebselen group/Expression level of each gene in vehicle group) [Equation 2]
# GCLM = test: as above; type: cell-based; details: mean ± standard deviation, normalized to GAPDH
# Protocol: as §1, §2, §3, §4, §5
# HO-1 = test: as above; type: cell-based; details: mean ± standard deviation, normalized to GAPDH
# Protocol: as §1, §2, §3, §4, §5
# TRxR = test: as above; type: cell-based; details: mean ± standard deviation, normalized to GAPDH
# Protocol: as §1, §2, §3, §4, §5
# chick retinal cells = chick retinal cells in an embryonic stage; cited from earlier work
# [2] = system: photoreceptor cells (visual cells); details: ischemia/reperfusion rabbit model; cited from earlier work
smiles,measurement,setting,value
"O=c1c2ccccc2[se]n1-c1ccccc1 [Ebselen, 2-phenyl-1,2-benzisoselenazol-3(2H)-one]",Suppression ratio against decrease in the number of cells in retinal ganglion cell layer,[1]; 3 mg/kg/day,38.0%
same,Suppression ratio against decrease in the number of cells in retinal ganglion cell layer,[1]; 30 mg/kg/day,59.7%
same,Induction ratio of expression of NQO-1 gene in 25 μM Ebselen group to vehicle group,NQO-1; after 4 hours,450 ± 74%
same,Induction ratio of expression of NQO-1 gene in 25 μM Ebselen group to vehicle group,NQO-1; after 8 hours,937 ± 183%
same,Induction ratio of expression of NQO-1 gene in 25 μM Ebselen group to vehicle group,NQO-1; after 12 hours,1266 ± 212%
same,Induction ratio of expression of GCLM gene in 25 μM Ebselen group to vehicle group,GCLM; after 4 hours,198 ± 18%
same,Induction ratio of expression of GCLM gene in 25 μM Ebselen group to vehicle group,GCLM; after 8 hours,194 ± 14%
same,Induction ratio of expression of GCLM gene in 25 μM Ebselen group to vehicle group,GCLM; after 12 hours,172 ± 13%
same,Induction ratio of expression of HO-1 gene in 25 μM Ebselen group to vehicle group,HO-1; after 4 hours,1263 ± 365%
same,Induction ratio of expression of HO-1 gene in 25 μM Ebselen group to vehicle group,HO-1; after 8 hours,1458 ± 307%
same,Induction ratio of expression of HO-1 gene in 25 μM Ebselen group to vehicle group,HO-1; after 12 hours,1311 ± 237%
same,Induction ratio of expression of TRxR gene in 25 μM Ebselen group to vehicle group,TRxR; after 4 hours,225 ± 11%
same,Induction ratio of expression of TRxR gene in 25 μM Ebselen group to vehicle group,TRxR; after 8 hours,193 ± 13%
same,Induction ratio of expression of TRxR gene in 25 μM Ebselen group to vehicle group,TRxR; after 12 hours,301 ± 26%
same,Effect on cell death caused by glutamate excitotoxicity,chick retinal cells,inhibited the cell death caused by glutamate excitotoxicity
same,Effect on b-wave of the electroretinogram (ERG) after ischemia/reperfusion,[2],attenuated the reduction of the b-wave
